System: cells of rat pituitary glands
Assay: in vitro GH release, rat pituitary cell monolayer culture bioassay (ir GH by radioimmunoassay)
Assay type: cell-based
Conditions: for GH secretion in vitro % of controls: Table III
Method: To determine the effectiveness of the peptides to promote the release of growth hormone, in vitro assays are carried out using synthetic PGRF (1-40) of Example II in side-by-side comparison with equimolar concentrations of the extracted and purified native PGRF (1-40) and of a GRF Reference Standard having a known effectiveness to promote the release of growth hormone from pituitary cells. The GRF Reference standard is described and defined in Brazeau, et al., Endocrinology, Vol. 110, A538(1982) and is an amount of a preparation of rat hypothalamic origin that produces a half-maximal response in terms of GH release in a pituitary cell monolayer bioassay. Cultures are used which include cells of rat pituitary glands removed some four to five days previously. Both cultures of a defined standard medium and cultures which are considered optimal for the secretion of growth hormone are used for the comparative testing, in the general manner described in Brazeau, et al. Regulatory Peptides, 1, 255, 1981. Incubation with the substance to be tested is carried out for 3 to 4 hours, and aliquots of the culture medium are removed and processed to measure their contents in inmunoreactive GH(ir GH) by a well-characterized radioimmunoassay.
The in vitro assays described in Example VII are repeated using Native PGRF(1-40) and Native PGRF(1-44) and the results are set forth in following Table III: […]

SMILES	GH-releasing activity (peptides isolated from human islet cell tumor)	GH secretion in vitro % of controls (6.3 femtomoles)	GH secretion in vitro % of controls (12.5 femtomoles)	GH secretion in vitro % of controls (25.0 femtomoles)	GH secretion in vitro % of controls (50.0 femtomoles)	GH secretion in vitro % of controls (100.0 femtomoles)	GH secretion in vitro % of controls (200.0 femtomoles)	GH secretion in vitro % of controls (400.0 femtomoles)	Potency in terms of PGRF(1-40) (confidence limits of 1.616 and 3.131, computer calculated (BIOPROG))	Potency in terms of GRF Reference Standard (per 1 femtomole, confidence limits of 0.122 and 0.239, computer calculated (BIOPROG)) [unit]
CC[C@H](C)[C@H](NC(=O)[C@H](C)NC(=O)[C@H](CC(=O)O)NC(=O)[C@H](C)NC(=O)[C@@H](N)Cc1ccc(O)cc1)C(=O)N[C@@H](Cc1ccccc1)C(=O)N[C@H](C(=O)N[C@@H](CC(N)=O)C(=O)N[C@@H](CO)C(=O)N[C@@H](Cc1ccc(O)cc1)C(=O)N[C@@H](CCCNC(=N)N)C(=O)N[C@@H](CCCCN)C(=O)N[C@H](C(=O)N[C@@H](CC(C)C)C(=O)NCC(=O)N[C@@H](CCC(N)=O)C(=O)N[C@@H](CC(C)C)C(=O)N[C@@H](CO)C(=O)N[C@@H](C)C(=O)N[C@@H](CCCNC(=N)N)C(=O)N[C@@H](CCCCN)C(=O)N[C@@H](CC(C)C)C(=O)N[C@@H](CC(C)C)C(=O)N[C@@H](CCC(N)=O)C(=O)N[C@@H](CC(=O)O)C(=O)N[C@H](C(=O)N[C@@H](CCSC)C(=O)N[C@@H](CO)C(=O)N[C@@H](CCCNC(=N)N)C(=O)N[C@@H](CCC(N)=O)C(=O)N[C@@H](CCC(N)=O)C(=O)NCC(=O)N[C@@H](CCC(=O)O)C(=O)N[C@@H](CO)C(=O)N[C@@H](CC(N)=O)C(=O)N[C@@H](CCC(N)=O)C(=O)N[C@@H](CCC(=O)O)C(=O)O)[C@@H](C)CC)C(C)C)[C@@H](C)O [PGRF(1-37) free acid]	exhibit GH-releasing activity									
CC[C@H](C)[C@H](NC(=O)[C@H](C)NC(=O)[C@H](CC(=O)O)NC(=O)[C@H](C)NC(=O)[C@@H](N)Cc1ccc(O)cc1)C(=O)N[C@@H](Cc1ccccc1)C(=O)N[C@H](C(=O)N[C@@H](CC(N)=O)C(=O)N[C@@H](CO)C(=O)N[C@@H](Cc1ccc(O)cc1)C(=O)N[C@@H](CCCNC(=N)N)C(=O)N[C@@H](CCCCN)C(=O)N[C@H](C(=O)N[C@@H](CC(C)C)C(=O)NCC(=O)N[C@@H](CCC(N)=O)C(=O)N[C@@H](CC(C)C)C(=O)N[C@@H](CO)C(=O)N[C@@H](C)C(=O)N[C@@H](CCCNC(=N)N)C(=O)N[C@@H](CCCCN)C(=O)N[C@@H](CC(C)C)C(=O)N[C@@H](CC(C)C)C(=O)N[C@@H](CCC(N)=O)C(=O)N[C@@H](CC(=O)O)C(=O)N[C@H](C(=O)N[C@@H](CCSC)C(=O)N[C@@H](CO)C(=O)N[C@@H](CCCNC(=N)N)C(=O)N[C@@H](CCC(N)=O)C(=O)N[C@@H](CCC(N)=O)C(=O)NCC(=O)N[C@@H](CCC(=O)O)C(=O)N[C@@H](CO)C(=O)N[C@@H](CC(N)=O)C(=O)N[C@@H](CCC(N)=O)C(=O)N[C@@H](CCC(=O)O)C(=O)N[C@@H](CCCNC(=N)N)C(=O)NCC(=O)N[C@@H](C)C(=O)N[C@@H](CCCNC(=N)N)C(=O)N[C@@H](C)C(=O)N[C@@H](CCCNC(=N)N)C(=O)N[C@@H](CC(C)C)C(N)=O)[C@@H](C)CC)C(C)C)[C@@H](C)O [Native PGRF (1-44)]		289 ± 10 % of controls	391 ± 8 % of controls	479 ± 8 % of controls	561 ± 14 % of controls	599 ± 7 % of controls	606 ± 6 % of controls	610 ± 5 % of controls	2.2261 ×PGRF(1-40)	0.1696

Source: US4517181A, “Mammalian PGRF” (The Salk Institute for Biological Studies, priority 1982, dated 1985)
